Source: ChEMBL document CHEMBL1201862, “PubChem BioAssay data set” (2004)
The source made the active and inactive calls.

Assays:
Nonstructural protein 1 = Nonstructural protein 1 (Influenza A virus, UniProt Q194T2); format: functional, Influenza A virus (A/California/07/2009(H1N1))
[1] = biological target: Voltage-dependent T-type calcium channel subunit alpha-1H (Homo sapiens, UniProt O95180); format: functional;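 note: channel activity triggered by adding a high calcium stimulation buffer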
cells = format: functional
[2] = toxicity toward HepG2 liver cells – cell-based, plate reader, cherry-pick, antagonist series, cytotoxicity control, dose response (AID 743416); format: functional
[3] = blockers of bursicon-stimulated LGR2 cAMP reporter – cell-based, HEK293, CRE-luciferase reporter, cherry pick, set 2, dose response (AID 743343); format: functional;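 note: transfected cells were stimulated with diluted bursicon conditioned medium after compound addition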
[4] = biological target: FAD-linked sulfhydryl oxidase ALR (Homo sapiens, UniProt P55789); assay: ALR-catalysed DTT oxidation blockers – biochemical, H2O2 detection, luminescence, cherry-pick, dose response (AID 493248)
[5] = blockade of melanocortin 4 receptor signaling – cell-based, plate reader, cherry pick, counter-screen for LGR2 antagonist project, dose response (AID 743444); format: functional;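 note: transfected HEK 293 cells stimulated with alpha-MSH peptide; potency of inhibitors of the alpha-MSH evoked signal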
BJ [6] = assay: BJ-TERT-LT-ST fibroblast viability loss – cell-based, RAS-independent, luminescence, dose response (AID 1935); format: functional; conditions: Homo sapiens;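 note: BJ fibroblasts immortalized with TERT plus LT and ST oncogenes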
[7] = DRD fibroblast viability loss – cell-based, non-viral oncogenic, luminescence, dose response (AID 1934); format: functional; conditions: Homo sapiens
BJ [8] = assay: cells; format: functional, cell-based; conditions: Homo sapiens
BJ [9] = assay: BJ-TERT fibroblast viability loss – cell-based, RAS-independent, luminescence, dose response (AID 1933); format: functional; conditions: Homo sapiens
[10] = Luminescence Cell-Based Dose Retest to Confirm Inhibitors of Cancer Stem Cells. [Related pubchem assays (depositor defined):AID2717, AID2721]; format: functional; conditions: Homo sapiens
[11] = biological target: T1, Long-chain-fatty-acid--AMP ligase FadD28 (Mycobacterium tuberculosis, UniProt P9WQ59); assay: Fluorescence polarization aasay to screen for inhibitors that compete for the binding of FadD28 to a bisubstrate Measured in Biochemical System Using Plate Reader - 2147-01_Inhibitor_Dose_CherryPick_Activity.; format: functional, Mycobacterium tuberculosis H37Rv
T1 sequence (P9WQ59 whole entry): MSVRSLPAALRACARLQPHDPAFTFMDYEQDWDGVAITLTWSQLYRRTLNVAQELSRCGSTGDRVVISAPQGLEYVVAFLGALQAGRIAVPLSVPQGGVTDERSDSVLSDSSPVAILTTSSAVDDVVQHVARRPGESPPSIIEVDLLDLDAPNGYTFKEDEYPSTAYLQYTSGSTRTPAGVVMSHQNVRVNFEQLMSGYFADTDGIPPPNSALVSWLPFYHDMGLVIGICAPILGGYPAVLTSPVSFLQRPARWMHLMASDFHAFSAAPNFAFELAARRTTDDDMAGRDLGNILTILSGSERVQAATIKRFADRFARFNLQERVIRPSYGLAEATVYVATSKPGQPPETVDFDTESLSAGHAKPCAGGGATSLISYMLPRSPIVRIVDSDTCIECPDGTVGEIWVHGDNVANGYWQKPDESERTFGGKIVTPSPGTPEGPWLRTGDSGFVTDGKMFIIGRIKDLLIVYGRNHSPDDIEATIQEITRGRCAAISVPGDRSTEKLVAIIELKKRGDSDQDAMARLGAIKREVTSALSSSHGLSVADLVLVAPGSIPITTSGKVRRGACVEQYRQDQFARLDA

[12] = blockers of HIV-1 envelope-mediated cell-cell fusion – cherry-pick, dose response (AID 652057); format: functional, cell-based
[13] = A549 cell cytotoxicity, dose response, cytotoxicity control, plate reader, cherry-pick, antagonist series (AID 743412); format: functional, cell-based
Paired box protein Pax-8 = Paired box protein Pax-8 (Homo sapiens, UniProt Q06710); assay: PAX8 transcriptional activity inhibition in RMG-I – RMG-I cells, luciferase, cherry-pick, dose response (AID 687027); format: functional, cell-based;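 note: luciferase reporter driven by Pax8 target thyroperoxidase promoter measured by SteadyGlo luminescence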
SN12K1 = assay: cells; format: functional; conditions: Homo sapiens
P388/ADR = assay: cells; format: functional; conditions: Mus musculus
P388 = assay: cells; format: functional; conditions: Mus musculus
[14] = blockers of HIV-1 ZM109 envelope-driven cell-cell fusion – HeLa effector, CEM target cells, luciferase, cherry-pick, dose response (AID 652058); format: functional, cell-based;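 note: luciferase signal from HIV-1 Env mediated cell-cell fusion of effector and target cells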

Sequence of Voltage-dependent T-type calcium channel subunit alpha-1H (O95180 whole entry): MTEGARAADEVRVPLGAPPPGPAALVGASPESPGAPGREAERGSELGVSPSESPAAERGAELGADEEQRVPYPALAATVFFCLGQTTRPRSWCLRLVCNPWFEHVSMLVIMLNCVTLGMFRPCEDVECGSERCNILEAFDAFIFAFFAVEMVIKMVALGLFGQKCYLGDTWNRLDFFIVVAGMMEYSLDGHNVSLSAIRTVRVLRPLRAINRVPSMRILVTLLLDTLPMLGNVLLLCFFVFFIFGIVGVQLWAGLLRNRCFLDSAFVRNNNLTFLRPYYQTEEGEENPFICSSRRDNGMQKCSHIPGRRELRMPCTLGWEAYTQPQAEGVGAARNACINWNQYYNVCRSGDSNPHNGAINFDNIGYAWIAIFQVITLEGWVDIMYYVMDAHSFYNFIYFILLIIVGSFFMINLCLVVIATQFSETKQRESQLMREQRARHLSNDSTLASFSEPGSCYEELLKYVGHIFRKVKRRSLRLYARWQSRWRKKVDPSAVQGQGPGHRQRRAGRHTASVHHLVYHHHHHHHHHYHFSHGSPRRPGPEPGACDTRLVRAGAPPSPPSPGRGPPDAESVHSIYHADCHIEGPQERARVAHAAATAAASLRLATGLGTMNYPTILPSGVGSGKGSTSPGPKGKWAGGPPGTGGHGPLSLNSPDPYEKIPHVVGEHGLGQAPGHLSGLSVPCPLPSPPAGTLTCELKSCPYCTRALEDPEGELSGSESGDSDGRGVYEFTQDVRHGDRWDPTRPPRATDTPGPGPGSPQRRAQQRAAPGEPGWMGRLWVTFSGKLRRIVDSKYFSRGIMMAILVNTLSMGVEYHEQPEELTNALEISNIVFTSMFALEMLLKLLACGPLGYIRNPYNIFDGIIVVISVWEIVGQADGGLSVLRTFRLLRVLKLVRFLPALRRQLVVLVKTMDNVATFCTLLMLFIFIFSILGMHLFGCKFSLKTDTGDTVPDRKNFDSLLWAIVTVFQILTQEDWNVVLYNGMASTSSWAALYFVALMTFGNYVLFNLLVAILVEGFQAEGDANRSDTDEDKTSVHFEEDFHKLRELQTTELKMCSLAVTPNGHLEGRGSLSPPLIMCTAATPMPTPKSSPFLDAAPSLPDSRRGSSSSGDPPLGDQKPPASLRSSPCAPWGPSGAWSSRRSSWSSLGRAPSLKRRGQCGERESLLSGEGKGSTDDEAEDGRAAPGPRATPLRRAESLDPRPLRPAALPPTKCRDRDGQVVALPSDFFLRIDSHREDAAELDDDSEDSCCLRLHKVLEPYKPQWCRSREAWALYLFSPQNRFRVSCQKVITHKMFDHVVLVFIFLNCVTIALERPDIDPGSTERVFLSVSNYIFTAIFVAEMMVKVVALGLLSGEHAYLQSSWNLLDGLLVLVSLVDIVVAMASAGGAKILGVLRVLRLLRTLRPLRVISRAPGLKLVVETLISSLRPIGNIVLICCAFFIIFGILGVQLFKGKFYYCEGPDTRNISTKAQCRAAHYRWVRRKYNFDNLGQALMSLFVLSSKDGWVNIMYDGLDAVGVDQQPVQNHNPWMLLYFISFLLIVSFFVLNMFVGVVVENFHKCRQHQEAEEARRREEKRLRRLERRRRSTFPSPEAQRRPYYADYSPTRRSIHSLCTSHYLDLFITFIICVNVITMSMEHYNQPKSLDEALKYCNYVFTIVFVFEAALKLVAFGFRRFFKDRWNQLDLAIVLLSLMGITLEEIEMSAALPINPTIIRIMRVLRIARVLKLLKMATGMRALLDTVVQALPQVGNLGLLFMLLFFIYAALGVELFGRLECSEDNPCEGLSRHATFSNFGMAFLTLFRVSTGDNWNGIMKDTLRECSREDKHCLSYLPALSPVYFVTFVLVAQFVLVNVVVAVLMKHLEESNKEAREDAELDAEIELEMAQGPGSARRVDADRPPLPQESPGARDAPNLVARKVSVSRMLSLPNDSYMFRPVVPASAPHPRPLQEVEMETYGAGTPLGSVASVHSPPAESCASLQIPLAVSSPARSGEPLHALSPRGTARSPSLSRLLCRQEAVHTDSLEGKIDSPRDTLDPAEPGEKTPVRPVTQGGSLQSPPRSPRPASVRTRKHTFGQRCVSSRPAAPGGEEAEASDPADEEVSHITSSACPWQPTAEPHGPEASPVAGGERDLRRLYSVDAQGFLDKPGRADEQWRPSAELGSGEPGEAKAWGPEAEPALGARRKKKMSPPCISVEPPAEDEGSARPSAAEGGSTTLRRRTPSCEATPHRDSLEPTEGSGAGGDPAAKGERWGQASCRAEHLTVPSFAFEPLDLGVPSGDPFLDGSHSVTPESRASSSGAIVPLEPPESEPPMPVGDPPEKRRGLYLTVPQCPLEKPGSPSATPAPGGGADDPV
Sequence of Nonstructural protein 1 (Q194T2 whole entry): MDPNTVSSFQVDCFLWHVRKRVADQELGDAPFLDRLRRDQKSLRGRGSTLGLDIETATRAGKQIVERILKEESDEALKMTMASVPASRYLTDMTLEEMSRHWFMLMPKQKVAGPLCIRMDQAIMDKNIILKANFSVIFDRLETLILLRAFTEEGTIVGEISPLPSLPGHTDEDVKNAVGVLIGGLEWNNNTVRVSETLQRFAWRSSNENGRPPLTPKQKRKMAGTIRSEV
Sequence of Paired box protein Pax-8 (Q06710 whole entry): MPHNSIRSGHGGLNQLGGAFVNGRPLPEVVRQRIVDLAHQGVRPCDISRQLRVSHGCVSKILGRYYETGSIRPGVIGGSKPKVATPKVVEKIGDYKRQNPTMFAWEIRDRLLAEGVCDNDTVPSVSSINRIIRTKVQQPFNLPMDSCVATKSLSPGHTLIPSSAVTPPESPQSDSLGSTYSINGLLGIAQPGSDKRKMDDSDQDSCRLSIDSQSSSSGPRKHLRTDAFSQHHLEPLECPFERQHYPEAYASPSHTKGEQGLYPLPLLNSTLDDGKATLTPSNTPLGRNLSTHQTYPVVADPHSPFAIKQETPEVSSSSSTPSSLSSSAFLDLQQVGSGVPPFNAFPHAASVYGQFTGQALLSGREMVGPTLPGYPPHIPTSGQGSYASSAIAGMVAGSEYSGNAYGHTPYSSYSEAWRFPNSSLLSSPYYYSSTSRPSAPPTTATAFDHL
Sequence of FAD-linked sulfhydryl oxidase ALR (P55789 whole entry): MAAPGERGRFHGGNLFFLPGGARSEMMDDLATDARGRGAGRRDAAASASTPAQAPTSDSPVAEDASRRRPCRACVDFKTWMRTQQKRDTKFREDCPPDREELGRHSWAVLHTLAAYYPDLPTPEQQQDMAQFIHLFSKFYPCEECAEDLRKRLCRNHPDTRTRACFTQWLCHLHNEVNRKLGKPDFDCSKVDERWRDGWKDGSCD

In the case of `O=S(=O)(c1ccc(NC(=S)NN=C2CCCCC2)cc1)N1CCOCC1`, the IC50 (Nonstructural protein 1) was 24.8 µM (active).

For `Cc1ccc(-c2noc(CCC(=O)Nc3cccc(C#N)c3)n2)cc1`, the EC50 [1] was 2.84 µM (active) and the IC50 (cells) was 19.9 µM (active).

With `C=CCc1cc(C)ccc1OCC(O)CN1CCN(c2ccccc2)CC1` (centres undefined) the EC50 [1] was 8.33 µM (active).

In the case of `Cc1ccccc1-n1nc2c(c1NC(=O)c1ccc(Br)o1)CSC2`, the EC50 [1] was 5.29 µM (active).

For `COc1ccc(C(c2nnnn2Cc2ccc(F)cc2)N2CCN(c3ccccc3)CC2)cc1` (centres undefined), the EC50 [1] was 2.66 µM (active).

For `CN(C)c1ccc(C(=O)Nc2nc3c(s2)CCCC3)cc1`, the AC50 [2] was 51.1 µM (active), the AC50 [3] was 8.81 µM (active) and the AC50 [4] was 0.188 µM (active). The AC50 [5] was 11.4 µM (active).

With `Cc1ccc(S(=O)(=O)N(CC(=O)N2CCN(c3ccc(F)cc3)CC2)C2CCCCC2)cc1` the EC50 [1] was 4.33 µM (active).

With `CCOc1ccccc1NC1=C(Cl)C(=O)N(Cc2ccccc2)C1=O` the EC50 (BJ [6]) was > 150 µM (not active), the EC50 [7] was > 150 µM (not active) and the EC50 (BJ [8]) was > 150 µM (not active). The EC50 (BJ [9]) was > 150 µM (not active).

For `Clc1ccc(CSc2nnnn2-c2ccc3c(c2)OCO3)c(Cl)c1`, the EC50 [1] was 9.79 µM (active) and the AC50 [10] was 13.1 µM (active).

For `CCc1nc(Sc2nnnn2-c2ccccc2)c2c3c(sc2n1)CCCC3`, the AC50 [3] was 5.1 µM (active) and the AC50 [5] was 5.14 µM (active).

With `Cc1cccc(NC(=O)CN2C(=O)N/C(=C/c3ccc(-c4cccc(C(=O)O)c4C)o3)C2=O)c1` the AC50 [11] was 72.3 µM (active).

For `S=C(NCc1ccccc1)NCc1cccc(CNC(=S)NCc2ccccc2)c1`, the AC50 [11] was 27.3 µM (active).

In the case of `COCCOC(=O)c1[nH]c2c(c1C)C(=O)CC(c1cccs1)C2` (centres undefined), the EC50 (BJ [6]) was 3.8 µM (active), the EC50 [7] was 12.9 µM (active) and the EC50 (BJ [8]) was 66.4 µM (active). The EC50 (BJ [9]) was 4.56 µM (active).

With `CCOC(=O)[C@@H]1[C@H]2COc3cc(OC)ccc3[C@H]2N2C(=O)N(c3cccc(F)c3)C(=O)[C@@]12C` the AC50 [12] was 35.2 µM (active).

With `c1ccc(COc2cccc(-c3cc4nc(NCCCn5ccnc5)ccn4n3)c2)cc1` the AC50 [2] was > 52 µM (inactive) and the AC50 [13] was 40 µM (active).

In the case of `CC(=O)Nc1ccc(S(=O)(=O)c2ccnc3cc(Cl)ccc23)cc1`, the AC50 (Paired box protein Pax-8) was 0.449 µM (active), the AC50 [3] was 66.3 µM (active) and the AC50 [13] was 26.9 µM (active).

With `CCCC[S+]([O-])CC(CO)NC(=O)/C=C/c1c(C)[nH]c(=O)[nH]c1=O` (centres undefined) the GI50 (SN12K1) was 6.01 µM (inactive), the GI50 (P388/ADR) was 1.5 µM (inactive) and the GI50 (P388) was 1.58 µM (inactive).

For `N/C(=N\O)N/N=C\c1ccc(O)c(O)c1O`, the GI50 (SN12K1) was 17.7 µM (inactive), the GI50 (P388/ADR) was 8.65 µM (inactive) and the GI50 (P388) was 14.4 µM (inactive).

In the case of `S=c1sc2c(s1)SC(c1ccccc1)CS2` (centres undefined), the GI50 (SN12K1) was > 89.5 µM (inactive), the GI50 (P388/ADR) was 44.6 µM (inactive) and the GI50 (P388) was 9.86 µM (inactive).

For `COc1cc(/N=N\c2cccc(S(=O)(=O)O)c2)ccc1/N=N\c1ccc(/C=C/c2ccc(-n3on3-c3ccc(/C=C/c4ccc(/N=N/c5ccc(/N=N\c6cccc(S(=O)(=O)O)c6)cc5OC)cc4S(=O)(=O)O)c(S(=O)(=O)O)c3)cc2S(=O)(=O)O)c(S(=O)(=O)O)c1`, the GI50 (SN12K1) was > 100 µM (inactive), the GI50 (P388/ADR) was > 100 µM (inactive) and the GI50 (P388) was > 100 µM (inactive).

For `COC(=O)C[C@H]1C=C[C@H](NC(=O)c2ccccn2)[C@@H](CO)O1`, the AC50 [14] was 0.414 µM (active).

For `COc1cc(C2c3cc4c(cc3[C@@H](Nc3ccc(Oc5ccccc5)cc3)C3COC(=O)[C@H]23)OCO4)cc(OC)c1O` (some centres undefined), the GI50 (SN12K1) was 0.935 µM (active), the GI50 (P388/ADR) was 0.407 µM (active) and the GI50 (P388) was 0.0504 µM (active).

With `CCOc1cccc(/C=N/N2C(=O)CSC2=S)c1O` the IC50 (Nonstructural protein 1) was 1.83 µM (active).

In the case of `Cc1c2ccncc2c(C)c2c1[nH]c1ccc(Cl)cc12`, the GI50 (SN12K1) was 2.94 µM (inactive), the GI50 (P388/ADR) was 1.83 µM (inactive) and the GI50 (P388) was 1.63 µM (inactive).

For `CC(CN1CC(=O)NC(=O)C1)N1CC(=O)NC(=O)C1` (centres undefined) [RAZOXANE], the GI50 (SN12K1) was 58.1 µM (inactive), the GI50 (P388/ADR) was 141 µM (inactive) and the GI50 (P388) was 1.85 µM (inactive).
